Like-named read-outs stand apart in the source and are kept apart here.

Series [1] has as its system male SD rats. Nature of the series: Pharmacological test against hypercholesterolemia (high cholesterol diet rats). The format is in vivo. Particulars: high cholesterol diet for 7 days, oral 200 mg/kg/day for 7 consecutive days, blood after 20 hours of fasting; for Reduction Percentage Cholesterol in beta-lipoprotein: beta-lipoprotein-cholesterol (heparin-calcium precipitation); for Reduction Percentage Cholesterol: serum cholesterol. An excerpt: Three groups of male SD rats each weighing about 150g, each group consisting of five rats, were used as test animals and one group consisting of 10 rats was used as control. All animals were fed a high cholesterol diet consisted of 1% cholesterol, 0.2% sodium cholate, 5% olive oil and commercial diet up to total 100% for 7 days. The test compounds of the present invention and clofibrate, as a medicine for comparison, were respectively dissolved or dispersed in an aqueous 1% solution of CMC so that the volume of the solution or dispersion administered each time to an animal was 0.5 ml/l00g body weight, and the solution or dispersion was orally administered so that the amount of administration each time of each pyrazole derivative or of clofibrate was 200 mg/kg body weight. Administration was carried out once a day for 7 consecutive days. Water was taken ad lib. After 20 hours of fasting from the last administration, a blood sample was taken from each animal by amputation of the carotid artery, and the serum separated was frozen until the analysis of cholesterol shown as follows:
The content of serum cholesterol was determined by the above-mentioned method. The beta-lipoprotein- cholesterol was determined by "heparin-calcium precipitation method". The reduction percentage of cholesterol in serum and beta-lipoprotein were calculated in the same manner as above.

Series [2] relates to male SD rats. Nature of the series: Pharmacological test against hypertriglyceridemia (fructose-loaded rats, serum lipid analysis). The format is in vivo. Particulars: Rattus norvegicus, rats given aqueous 10% fructose for 2 days, oral, three doses, total dose 300 mg/kg as free carboxylic acid (total dose 300, esters 324-329 mg/kg), blood 48 hours after start. An excerpt: Seven groups of male SD rats, each group consisting of 6 animals, were used as test animals and one group consisting of 12 animals was used as a control. The test groups were made hypertriglyceridemic by administering aqueous 10% by weight solution of fructose for 2 days, while the animals of the control group were given tap water. The administration to the test groups of six pyrazole derivatives and of nicotinic acid was as follows:
Each pyrazole derivative and nicotinic acid was separately dissolved or dispersed in an aqueous 1% solution of carboxymethylcellulose (CMC) at a predetermined concentration, and the thus prepared solution or dispersion was orally administered in three doses, each dose having a volume of 0.5 ml/100 g body weight, a first dose just after the commencement of the test, a second dose 24 hours after the first dose, and a third dose 18 hours after the second dose. The total dosage of each compound was such that each animal received 300 mg/kg of each compound as free carboxylic acid. The rats of the control group were given the aqueous l% solution of CMC only, in three doses at the same intervals as the test groups. All the groups were fed with the same diet during the test period.
After 48 hours of the commencement of the test, a blood sample was collected from each animal by amputation of the carotid artery, and serum was separated from the blood sample and frozen to be kept until lipid analysis.
Serum triglyceride was determined by Acetylacetone Method, and the reduction percentage of lipid was calculated on the basis of the following formula: [formula] wherein the reduction percentage is the average for the test animals in each group.
The content of serum cholesterol was determined by an enzymatic method using cholesteroloxidase, and the reduction percentage of cholesterol was calculated according to the following formula: [formula]

Series [3] in a line: Acute toxicity, oral. Particulars: mouse, in vivo, male ICR mice, in aqueous 1% CMC, roughly calculated from mortalities at 2.5 and 5.0 g/kg body weight. How it is done: The acute toxicity of the present pyrazole derivatives to mammals was determined by the following method.
Male ICR mice of body weight 21 to 25 g were divided into several groups each consisting of 8 animals and were fasted for 17 to 18 hours and then orally given a pyrazole derivative or nicotinic acid dissolved or dispersed in an aqueous 1% CMC solution at a rate of 0.2 ml/10 g body weight. The administered amount of each compound was 2.5 g/kg body weight or 5.0 g/kg, and from the mortalities at both levels, LD50 was roughly calculated and compared with LD50 of nicotinic acid.

Setting [4] is: serum cholesterol, read-out: Reduction Percentage Cholesterol.
The mark [5] stands for this setting: serum triglyceride, read-out: Reduction Percentage Triglyceride.

As for `CCCCCCCCCCCCCc1cc(C(=O)O)nn1C` [1-methyl-5-n-tridecylpyrazole-3-carboxylic acid], in series [1], the “Reduction Percentage Cholesterol in beta-lipoprotein” value is 57.3 and the “Reduction Percentage Cholesterol” value is on record as 60.1. For the same molecule, in series [2] (setting [4]), the inhibition in vivo at 300 mg/kg was 61.2%. Besides, the inhibition in vivo at 300 mg/kg in series [2] (setting [5]) amounted to 75.9%.
`CCCCCCCCCCCCCc1cc(C(=O)NCC(=O)OCC)n[nH]1` [3-N-ethoxycarbonylmethylcarbamoyl-5-n-tridecylpyrazole]: in series [1], the “Reduction Percentage Cholesterol in beta-lipoprotein” value was found to be 32.7. Besides, in series [1], the “Reduction Percentage Cholesterol” value turned out to be 48.6. In addition, the inhibition in vivo at 300 mg/kg amounted to 34.8% in series [2] (setting [4]) and 81.4% in series [2] (setting [5]).
For `CCCCCCCCCCCCCc1cc(CO)n[nH]1` [3-hydroxymethyl-5-n-tridecylpyrazole], in series [1], the “Reduction Percentage Cholesterol in beta-lipoprotein” value came to 25.2 and the “Reduction Percentage Cholesterol” value was determined as 52.7. Further, the inhibition in vivo at 300 mg/kg in series [2] (setting [4]) worked out at 55.8%. Further, the inhibition in vivo at 300 mg/kg in series [2] (setting [5]) worked out at 78.2%.
In the case of `CCCCCCCCCCCCCCCCCc1cc(C(=O)O)n[nH]1` [5-n-heptadecylpyrazole-3-carboxylic acid], the inhibition in vivo at 300 mg/kg in series [2] (setting [4]) came to 24.5%; in series [2] (setting [5]) it was 30.5%.
Take `CCCCCCCCCCCCCCCc1cc(C(=O)O)n[nH]1` [5-n-pentadecylpyrazole-3-carboxylic acid]: the inhibition in vivo at 300 mg/kg came out at 32.1% in series [2] (setting [4]) and 62.8% in series [2] (setting [5]).
As to `CCCCCCCCCCCCCc1cc(C(=O)O)n[nH]1` [5-n-tridecylpyrazole-3-carboxylic acid], the “Reduction Percentage Cholesterol in beta-lipoprotein” value in series [1] is recorded as 54.3. Moreover, the “Reduction Percentage Cholesterol” value in series [1] is 45.2. For the same molecule, the inhibition in vivo at 300 mg/kg in series [2] (setting [4]) was 59.8%; in series [2] (setting [5]), 76.4%.
On to `O=C(O)c1cccnc1` [Nicotinic acid, reference compound], for which the inhibition in vivo at 300 mg/kg in series [2] (setting [4]) was determined as 16.4%; in series [2] (setting [5]), 24.1%. Also, the LD50 (commonly the dose at which mortality reaches 50%) in series [3] was 4500 mg/kg.
For the molecule `CCCCCCCCCCCCCCCCCc1cc(C(=O)OCC)n[nH]1` [ethyl 5-n-heptadecylpyrazole-3-carboxylate], the inhibition in vivo at 300 mg/kg in series [2] (setting [4]) came out at 32.9%; in series [2] (setting [5]), 35.2%.
The matching figures for `CCCCCCCCCCCCCCCc1cc(C(=O)OCC)n[nH]1` [ethyl 5-n-pentadecylpyrazole-3-carboxylate]: 34.1% and 67.8%.
Regarding `CCCCCCCCCCCCCc1cc(C(=O)OCC)n[nH]1` [ethyl 5-n-tridecylpyrazole-3-carboxylate], the inhibition in vivo at 300 mg/kg in series [2] (setting [4]) is 65.1%; in series [2] (setting [5]), 88%.

The record behind these values is patent publication EP0029363A1, “Pyrazole derivatives, process for their preparation and pharmaceutical compositions containing them” (MORISHITA PHARMACEUTICAL CO. LTD., priority 1979, dated 1981).
